Values joined by “and” are separate entries in the source; they are usually repeats but may differ in a detail not shown here. Equal values may be shown once.
How the values were obtained:
[1] = system: neuronal-type nicotinic receptors; settings: cited from earlier work
[2] = system: neuronal-type nicotinic receptors; assay type: cell-based, bovine

| SMILES | effect on nicotine-stimulated release of adrenaline and noradrenaline (in words) [1] | Adrenaline Release 1st [2] | Adrenaline Release 2nd [2] | Adrenaline Release 3rd [2] | Adrenaline Release 4th [2] | Adrenaline Release % control [2] | Adrenaline Release mean [2] | Noradrenaline Release 1st [2] | Noradrenaline Release 2nd [2] | Noradrenaline Release 3rd [2] | Noradrenaline Release 4th [2] | Noradrenaline Release % control [2] | Noradrenaline Release mean [2] |
| --- | --- | --- | --- | --- | --- | --- | --- | --- | --- | --- | --- | --- | --- |
| C[C@@H]1NC(=O)[C@@H]2CSC3(SC[C@@H](C(N)=O)NC(=O)[C@H](CCCNC(=N)N)NC(=O)[C@H](Cc4cc5ccccc5[nH]4)NC1=O)SC[C@H](NC(=O)CN)C(=O)N[C@@H](CS3)C(=O)N[C@@H](CO)C(=O)N[C@@H](CC(=O)O)C(=O)N1CCCC1C(=O)N[C@@H](CCCNC(=N)N)C(=O)N2 (stereo partly drawn) [Ctx ImI, α-conotoxin ImI] | inhibit the nicotine-stimulated release |  |  |  |  |  |  |  |  |  |  |  |  |
| C[C@@H]1NC(=O)[C@@H]2CCCC[C@H](NC(=O)CN)C(=O)N[C@@H](CSSC[C@@H](C(N)=O)NC(=O)[C@H](CCCNC(=N)N)NC(=O)[C@H](Cc3cc4ccccc4[nH]3)NC1=O)C(=O)N[C@@H](CO)C(=O)N[C@@H](CC(=O)O)C(=O)N1CCCC1C(=O)N[C@@H](CCCNC(=N)N)C(=O)N2 (stereo partly drawn) [compound 118, [2,8]-Dicarba-[3,12]-Cystino Conotoxin ImI: NH2-Gly-c[Hag-Cys-Ser-Asp-Pro-Arg-Hag]-Ala-Trp-Arg-Cys)-NH2] |  | 2.94% and 2.55% | 4.40% and 3.63% | 4.46% and 2.62% | 4.09% and 3.31% | 88.260% and 65.306% | 3.97% and 3.03% | 4.52% and 4.19% | 6.29% and 5.86% | 7.00% and 4.32% | 7.34% and 5.51% | 90.859% and 69.384% | 6.29% and 4.97% |

— patent US8759480B2, “Contoxin analogues and methods for synthesis of intramolecular dicarba bridge-containing peptides” (Syngene Limited, priority 2006, dated 2014)
